From patent US11952365B2, “Anti-viral compounds” (Aligos Therapeutics, Inc., priority 2020, dated 2024)
Read-outs that look alike come from different tables or passages of the source.

How the values were obtained:
HRV3C = HRV3C (Human rhinovirus 14, UniProt P03303); assay: HRV3C protease assay (duplex, SAMDI-MS); assay type: biochemical, HRV; conditions: 30 mins preincubation
How it was run: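 Steps: enzymes (HRV3C plus 3CLpro) and compound preincubated 30 min; two peptide substrates added; 30 min reaction at ambient temperature; formic acid quench; SAMDI capture and reflector-positive TOF analysis. Product quantified against internal standard peptides. IC50 by four-parameter equation.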

[1] = system: human beta-coronavirus OC43; assay: microbe, parasite or virus in culture; assay type: cell-based; conditions: Betacoronavirus 1, OC43, HeLa, 144 h
[2] = Cytotoxicity plates without OC43 virus (cell-titer-glo); assay type: cell-based, human; conditions: human; HeLa cells without OC43 virus, class symbols
How it was run: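 HeLa cells seeded overnight, then treated with serially diluted compounds in 2% FBS EMEM, uninfected, in parallel with the OC43 antiviral plates. Incubated 6 days at 33 °C; viability read by CellTiter-Glo luminescence.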

[3] = system: SARS-CoV-2-GHB-03021/2020; assay: SARS-CoV-2 Infection Model in Huh7 Cells; assay type: cell-based; conditions: Severe acute respiratory syndrome coronavirus 2, Huh-7, 96 h, SARS-CoV-2, day 4 p.i., MTS
[4] = system: SARS-CoV-2-GHB-03021/2020; assay: microbe, parasite or virus in culture; assay type: cell-based; conditions: Severe acute respiratory syndrome coronavirus 2, Vero C1008, 96 h; read-out: VeroE6 + CP (EC50)
human cathepsin L = biological target: T1, human cathepsin L (Homo sapiens, UniProt P07711); assay: cathepsin L assay; assay type: biochemical; conditions: 10 pM human cathepsin L, Z-FR-AMC 2 μM, class symbols
T1 construct: purchased R&D Systems
How it was run: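 Human cathepsin L at 10 pM was preincubated 30 min with compound, then reaction started with Z-FR-AMC (2 μM final). Fluorescence (355/460 nm) read every 2 min for 30 min; IC50 from four-parameter curve fit.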

in vitro [5] = conditions: human
in vitro [6] = conditions: African green monkey, VeroE6 + CP (CC50), Vero E6-eGFP cells with CP-100356, absence of virus, MTS
3CLpro = 3CLpro (Severe acute respiratory syndrome coronavirus 2, UniProt P0DTD1); assay: SARS-CoV-2 3CLpro protease assay (duplex, SAMDI-MS); assay type: biochemical; parameters: For the duplex assay, 3CLpro and HRV3C was added; conditions: 3CLpro, 30 mins preincubation, read-out: SARS-Cov-2 IC50
[7] = HRV3C, class symbols, read-out: HRV IC50
[8] = OC43 in HeLa cells, 6 days at 33° C., class symbols, read-out: EC50
[9] = HRV3C, bound, read-out: HRV IC50
[10] = OC43 in HeLa cells, 6 days at 33° C., bound, read-out: EC50

SMILES	IC50 (HRV3C; [7]) [µM]	EC50 [1, 8] [µM]	CC50 at 6 days [2] [µM]	EC50 ([3]; class symbols) [µM]	EC50 [4] [µM]	IC50 (human cathepsin L) [µM]	CC50 (in vitro [5]) [µM]	CC50 (in vitro [6]; numeric bounds) [µM]	IC50 (3CLpro; class symbols) [µM]	IC50 (HRV3C; [9]) [µM]	EC50 [1, 10] [µM]	EC50 ([3]; numeric bounds) [µM]	IC50 (3CLpro; bound) [µM]	IC50 (HRV3C; HRV IC50, HRV3C, class symbols) [µM]	EC50 [1] [µM]	CC50 (in vitro [6]; class symbols) [µM]	IC50 (HRV3C; HRV IC50, HRV3C, bound) [µM]
COc1cccc2[nH]c(C(=O)N3C[C@@H]4CCC[C@@H]4[C@H]3C(=O)N[C@@H](C[C@@H]3CCNC3=O)C(=O)COCc3ccccc3)cc12 [Compound 27A, (1S,3aR,6aS)—N-[(2S)-4-(benzyloxy)-3-oxo-1-[(3S)-2-oxopyrrolidin-3-yl]butan-2-yl]-2-(4-methoxy-1H-indole-2-carbonyl)-hexahydro-1H-cyclopenta[c]pyrrole-1-carboxamide]	2 to 20	< 0.1	> 10	1 to 10	1 to 10	≥ 10	> 10	> 100	0.02 to 0.2								
O=C1NCC[C@H]1C[C@H](NC(=O)[C@@H]1[C@H]2CCC[C@H]2CN1C(=O)c1cc2c([nH]1)CCCC2)C(=O)CO [Compound 83, (1S,3aR,6aS)—N-[(2S)-4-hydroxy-3-oxo-1-[(3S)-2-oxopyrrolidin-3-yl]butan-2-yl]-2-(4,5,6,7-tetrahydro-1H-indole-2-carbonyl)-hexahydro-1H-cyclopenta[c]pyrrole-1-carboxamide]		0.1 to 1	> 10	< 1	< 1	≥ 10	> 50	> 50	0.02 to 0.2	> 10							
COc1ccc(Br)c2[nH]c(C(=O)N3C[C@@H]4CCC[C@@H]4[C@H]3C(=O)N[C@@H](C[C@@H]3CCNC3=O)C(=O)CO)cc12 [Compound 124, (1S,3aR,6aS)-2-(7-bromo-4-methoxy-1H-indole-2-carbonyl)-N-[(2S)-4-hydroxy-3-oxo-1-[(3S)-2-oxopyrrolidin-3-yl]butan-2-yl]-hexahydro-1H-cyclopenta[c]pyrrole-1-carboxamide]	2 to 20	0.1 to 1	> 10	< 1	< 1	≥ 10	> 50	> 50	< 0.02								
COc1cccc2[nH]c(C(=O)N3C[C@@H]4CCC[C@@H]4[C@H]3C(=O)N[C@@H](C[C@@H]3CCNC3=O)C(=O)C(=O)N(C)C)cc12 [Compound 110]			> 10		> 50	≥ 10	> 50	> 50		> 10	> 10	> 50	> 10				
COc1cccc2[nH]c(C(=O)N3C[C@H](C(F)(F)F)C[C@H]3C(=O)N[C@@H](C[C@@H]3CCCNC3=O)C(=O)CO)cc12 [Compound 45]	2 to 20	0.1 to 1	> 10	1 to 10	< 1	≥ 10	> 100	> 100	0.02 to 0.2								
COc1cccc2[nH]c(C(=O)N3C[C@]4(C[C@H]3C(=O)N[C@@H](C[C@@H]3CCNC3=O)C(=O)CO)CC4(F)F)cc12 [Compound 39]		0.1 to 1	> 10	1 to 10	1 to 10	≥ 10	> 100	> 100	0.02 to 0.2	> 10							
O=C(NC1CC1)C(=O)[C@H](C[C@@H]1CCNC1=O)NC(=O)[C@@H]1CC2(CCN1C(=O)c1cc3c(F)cccc3[nH]1)CC2 [Compound 164]	0.2 to 2	1 to 10	> 10		10 to 100	1 to 10	1 to 10	> 50	< 0.02			> 10					
CC(C)COCCNC(=O)C(=O)[C@H](C[C@@H]1CCNC1=O)NC(=O)[C@@H]1[C@H]2CCC[C@H]2CN1C(=O)c1cc2c(Cl)cc(Cl)cc2[nH]1 [Compound 149, (1S,3aR,6aS)-2-(4,6-dichloro-1H-indole-2-carbonyl)-N—((S)-4-((2-isobutoxyethyl)amino)-3,4-dioxo-1-((S)-2-oxopyrrolidin-3-yl)butan-2-yl)octahydrocyclopenta[c]pyrrole-1-carboxamide]			> 10	< 1	< 1	1 to 10	1 to 10		0.02 to 0.2					2 to 20	0.1 to 1	> 10	
COc1cccc2[nH]c(C(=O)N3CCc4ccccc4[C@H]3C(=O)N[C@@H](C[C@@H]3CCNC3=O)C(=O)CO)cc12 [Compound 106]	2 to 20	1 to 10	> 10	10 to 100	10 to 100	≥ 10	> 10	> 50	0.2 to 2								
COc1cccc2[nH]c(C(=O)N3C[C@@H]4CCC[C@@H]4[C@H]3C(=O)N[C@@H](CC3CC(C)(C)NC3=O)C(=O)CO)cc12 (relative stereo) [Compound 70_1, (1S,3aR,6aS)—N—((S)-1-((R*)-5,5-dimethyl-2-oxopyrrolidin-3-yl)-4-hydroxy-3-oxobutan-2-yl)-2-(4-methoxy-1H-indole-2-carbonyl)octahydrocyclopenta[c]pyrrole-1-carboxamide]	0.2 to 2	0.1 to 1	> 10	1 to 10	< 1	≥ 10	> 10		< 0.02							> 10	
COc1cccc2[nH]c(C(=O)N3C[C@@H]4CCC[C@@H]4[C@H]3C(=O)N[C@H](C=O)CC3CCNS3(=O)=O)cc12 (stereo partly drawn) [Compound 142, (1S,3aR,6aS)—N-((2S)-1-(1,1-dioxidoisothiazolidin-5-yl)-3-oxopropan-2-yl)-2-(4-methoxy-1H-indole-2-carbonyl)octahydrocyclopenta[c]pyrrole-1-carboxamide]			> 10		> 50	≥ 10	> 10	> 50	0.2 to 2		> 10	> 10					> 10
CC1(C)CCN(C(=O)c2cc3ccccc3[nH]2)[C@H](C(=O)NC(C[C@@H]2CCNC2=O)C(=O)C(=O)NCc2ccccc2)C1 (stereo partly drawn) [Compound 26, (2S)—N-(4-(benzylamino)-3,4-dioxo-1-((S)-2-oxopyrrolidin-3-yl)butan-2-yl)-1-(1H-indole-2-carbonyl)-4,4-dimethylpiperidine-2-carboxamide]	2 to 20	0.1 to 1	> 10	10 to 100	10 to 100	< 0.1	> 100	> 100	0.02 to 0.2								
COc1cccc2[nH]c(C(=O)N3C[C@]4(C[C@H]3C(=O)N[C@@H](C[C@@H]3CCCNC3=O)C(=O)C(=O)NC(C)C)CC4(F)F)cc12 [Compound 34]	0.2 to 2	0.1 to 1	> 10	10 to 100	1 to 10	≥ 10	> 100	> 100	0.02 to 0.2								
CC(C)(C)C(=O)OCC(=O)[C@H](C[C@@H]1CCNC1=O)NC(=O)[C@@H]1[C@H]2CCC[C@H]2CN1C(=O)c1cc2c(Cl)cc(Cl)cc2[nH]1 [Compound 132, (3S)-3-{[(1S,3aR,6aS)-2-(4,6-dichloro-1H-indole-2-carbonyl)-hexahydro-1H-cyclopenta[c]pyrrol-1-yl]formamido}-2-oxo-4-[(3S)-2-oxopyrrolidin-3-yl]butyl 2,2-dimethylpropanoate]		< 0.1	1 to 10	< 1	< 1	≥ 10	> 10		0.2 to 2	> 10						> 10	
O=C(NC1CC1)C(=O)[C@H](C[C@@H]1CCNC1=O)NC(=O)[C@@H]1CC2(CCN1C(=O)c1cc3ccccc3[nH]1)CC2 [Compound 140, (S)—N—((S)-4-(cyclopropylamino)-3,4-dioxo-1-((S)-2-oxopyrrolidin-3-yl)butan-2-yl)-6-(1H-indole-2-carbonyl)-6-azaspiro[2.5] octane-5-carboxamide]			> 10	1 to 10	1 to 10	≥ 10	> 10	> 50	0.02 to 0.2					2 to 20	0.1 to 1		
